From patent publication US12599672B2, “KRAS proteolysis targeting chimeras” (PAQ Therapeutics Inc., priority 2023, dated 2026)

Molecular target: T1, KRAS G12D (Homo sapiens, UniProt P01116, G12D)
T1 construct: AsPc-1-KRAS (G12D)-HiBit-KI cell (Pharmaron); host or cells: AsPc-1-KRAS (G12D)-HiBit-KI cells (HiBiT knock-in at the endogenous KRAS locus)
Experiment: KRAS G12D HiBit assay
Type: cell-based
Conditions: AsPc-1-KRAS (G12D)-HiBit-KI cell, compound treatment for 24 hours; for DC50: absolute DC50
Description: Day 1. […] Allowed cells to reach approximately 80% confluence before splitting. Rinsed cultivated cells in T-75 flasks with 5 mL PBS (Solarbio, P1020-500). […] Inactivated trypsin by adding excessive serum containing medium. Harvested the cells from flask into cell culture medium and counted the cell number.
Day 2. Test compounds were dissolved at 0.3 mM in DMSO (Solarbio, D8371) as stock solution. […] Performed 3-fold, 10-points dilution via transferring 15 μL compound into 30 μL DMSO by using TECAN liquid handler (TECAN, Freedom EVO200).
Day 3. After compound treatment for 24 hours, removed the plate from incubators and equilibrated at room temperature for 15 minutes. Prepared the HiBit reagent (Promega, N3040) by mixing 10 mL of Nano-Glo®-HiBiT Lytic Buffer with 200 μL of Nano-Glo®-HiBiT Lytic Substrate and 100 μL of LgBiT Protein. Added 20 μL of HiBit reagent into each well of the cell plate and spun the plates at room temperature at 1,000 RPM for 1 minute.
The inhibition activity was calculated using the following formula:
[formula] where HC (high control) is obtained from cells treated with 0.1% DMSO only.

[1] = numeric bounds given in place of class symbols

T1 sequence (P01116 1-188 isoform P01116-2 G12D): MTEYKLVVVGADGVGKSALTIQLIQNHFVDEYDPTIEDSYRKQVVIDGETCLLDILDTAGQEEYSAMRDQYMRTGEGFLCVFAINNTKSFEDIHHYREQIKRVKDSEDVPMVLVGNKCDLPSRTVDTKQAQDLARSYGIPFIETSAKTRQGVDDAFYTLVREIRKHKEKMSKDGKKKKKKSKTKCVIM

Row | DC50 (class symbols) [nM] | Dmax (class symbols) [%] | DC50 [1] [nM] | Compound
1 | > 300 | 15 to 50 |  | C#Cc1c(F)ccc2cccc(-c3ncc4c(N5CCC[C@@](C)(O)C5)nc(OC[C@@]56CCCN5[C@H](COC(=O)NCCOCCOCCOc5ccc7c(c5)n(C)c(=O)n7C5CCC(=O)NC5=O)CC6)nc4c3F)c12 (stereo partly drawn) [Compound 108, ((3S,7aS)-7a-(((7-(8-ethynyl-7-fluoronaphthalen-1-yl)-8-fluoro-4-((R)-3-hydroxy-3-methylpiperidin-1-yl)pyrido[4,3-d]pyrimidin-2-yl)oxy)methyl)hexahydro-1H-pyrrolizin-3-yl)methyl (2-(2-(2-((1-(2,6-dioxopiperidin-3-yl)-3-methyl-2-oxo-2,3-dihydro-1H-benzo[d]imidazol-5-yl)oxy)ethoxy)ethoxy)ethyl) carbamate]
2 | > 300 |  |  | C#Cc1c(F)ccc2cccc(-c3ncc4c(N5CCC[C@@](C)(O)C5)nc(OCC5(CN6CCC7(CC6)CC(N6CCC(c8ccc9c(C%10CCC(=O)NC%10=O)nn(C)c9c8)CC6)C7)CC5)nc4c3F)c12 (stereo partly shown) [Compound 35]
3 | > 300 | 15 to 50 |  | C#Cc1c(F)ccc2cccc(-c3ncc4c(N5CCC[C@@](C)(O)C5)nc(OC[C@@]56CCCN5[C@H](COC(=O)NCCOCCOc5ccc7c(c5)n(C)c(=O)n7C5CCC(=O)NC5=O)CC6)nc4c3F)c12 (stereo partly shown) [Compound 107]
4 | > 300 |  |  | CCc1c(F)ccc2cc(O)cc(-c3ncc4c(N5CCC[C@@](C)(O)C5)nc(OC[C@@]56CCCN5[C@H](COC(=O)NCCOCCOc5ccc7c(c5)n(C)c(=O)n7C5CCC(=O)NC5=O)CC6)nc4c3F)c12 (stereo partly drawn) [Compound 112, ((3S,7aS)-7a-(((7-(8-ethyl-7-fluoro-3-hydroxynaphthalen-1-yl)-8-fluoro-4-((R)-3-hydroxy-3-methylpiperidin-1-yl)pyrido[4,3-d]pyrimidin-2-yl)oxy)methyl)hexahydro-1H-pyrrolizin-3-yl)methyl (2-(2-((1-(2,6-dioxopiperidin-3-yl)-3-methyl-2-oxo-2,3-dihydro-1H-benzo[d]imidazol-5-yl)oxy)ethoxy)ethyl) carbamate]
5 | < 100 |  |  | C#Cc1c(F)ccc2cc(O)cc(-c3ncc4c(N5CCC[C@@](C)(O)C5)nc(OCC5(CN6CCC(N7CCC(c8ccc9c(c8)n(C)c(=O)n9C8CCC(=O)NC8=O)CC7)CC6)CC5)nc4c3F)c12 (stereo partly shown) [Compound 59]
6 | > 300 | 15 to 50 |  | C#Cc1c(F)ccc2cccc(-c3ncc4c(N5CCC[C@@](C)(O)C5)nc(OC[C@@]56CCCN5[C@H](COC(=O)NCCOCCOCCOCCOc5ccc7c(c5)n(C)c(=O)n7C5CCC(=O)NC5=O)CC6)nc4c3F)c12 (stereo partly drawn) [Compound 109, ((3S,7aS)-7a-(((7-(8-ethynyl-7-fluoronaphthalen-1-yl)-8-fluoro-4-((R)-3-hydroxy-3-methylpiperidin-1-yl)pyrido[4,3-d]pyrimidin-2-yl)oxy)methyl)hexahydro-1H-pyrrolizin-3-yl)methyl (2-(2-(2-(2-((1-(2,6-dioxopiperidin-3-yl)-3-methyl-2-oxo-2,3-dihydro-1H-benzo[d]imidazol-5-yl)oxy)ethoxy)ethoxy)ethoxy)ethyl) carbamate]
7 | < 100 |  |  | C#Cc1c(F)ccc2cc(O)cc(-c3ncc4c(N5CCC[C@@](C)(O)C5)nc(OCC5(CN6CCC(N7CCN(c8ccc9c(c8)n(C)c(=O)n9C8CCC(=O)NC8=O)CC7)CC6)CC5)nc4c3F)c12 (stereo partly shown) [Compound 30]
8 | > 300 |  |  | C#Cc1c(F)ccc2cccc(-c3ncc4c(N5CCC[C@@](C)(O)C5)nc(OCC5(CN6CCC7(CC6)CC(N6CCN(c8ccc9c(c8)n(C)c(=O)n9C8CCC(=O)NC8=O)CC6)C7)CC5)nc4c3F)c12 (stereo partly shown) [Compound 41]
9 | > 300 |  |  | C#Cc1c(F)ccc2cccc(-c3ncc4c(N5CCC[C@@](C)(O)C5)nc(OCC5(CN6CCN(Cc7ccc8c(c7)n(C)c(=O)n8C7CCC(=O)NC7=O)CC6)CC5)nc4c3F)c12 (stereo partly shown) [Compound 37]
10 | < 100 |  |  | C#Cc1c(F)ccc2cc(O)cc(-c3ncc4c(N5CCC[C@@](C)(O)C5)nc(OCC5(CN6CCC(CN7CCN(c8ccc9c(c8)C(=O)N(C8CCC(=O)NC8=O)C9=O)CC7)CC6)CC5)nc4c3F)c12 (stereo partly shown) [Compound 46]
11 | > 300 |  |  | CCc1c(F)ccc2cc(O)cc(-c3ncc4c(N5CCC[C@@](C)(O)C5)nc(OC[C@@]56CCCN5[C@H](COC(=O)NCCOCCOCCOc5ccc7c(c5)n(C)c(=O)n7C5CCC(=O)NC5=O)CC6)nc4c3F)c12 (stereo partly drawn) [Compound 113, ((3S,7aS)-7a-(((7-(8-Ethyl-7-fluoro-3-hydroxynaphthalen-1-yl)-8-fluoro-4-((R)-3-hydroxy-3-methylpiperidin-1-yl)pyrido[4,3-d]pyrimidin-2-yl)oxy)methyl)hexahydro-1H-pyrrolizin-3-yl)methyl (2-(2-(2-((1-(2,6-dioxopiperidin-3-yl)-3-methyl-2-oxo-2,3-dihydro-1H-benzo[d]imidazol-5-yl)oxy)ethoxy)ethoxy)ethyl) carbamate]
12 | < 100 |  |  | C#Cc1c(F)ccc2cc(O)cc(-c3ncc4c(N5CCC[C@@](C)(O)C5)nc(OCC5(CN6CCN(C7CCN(c8ccc9c(c8)n(C)c(=O)n9C8CCC(=O)NC8=O)CC7)CC6)CC5)nc4c3F)c12 (stereo partly shown) [Compound 45]
13 | > 300 |  |  | C#Cc1c(F)ccc2cccc(-c3ncc4c(N5CCC[C@@](C)(O)C5)nc(OCC5(CN6CCN(Cc7cccc8c7n(C)c(=O)n8C7CCC(=O)NC7=O)CC6)CC5)nc4c3F)c12 (stereo partly shown) [Compound 61]
14 | < 100 |  |  | C#Cc1c(F)ccc2cc(O)cc(-c3ncc4c(N5CCC[C@@](C)(O)C5)nc(OCC5(CN6CCC(N7CCC(c8cccc9c8n(C)c(=O)n9C8CCC(=O)NC8=O)CC7)CC6)CC5)nc4c3F)c12 (stereo partly shown) [Compound 85]
15 | > 300 |  |  | C#Cc1c(F)ccc2cccc(-c3ncc4c(N5CCC[C@@](C)(O)C5)nc(OCC5(CN6CCN(CC7CCN(c8ccc9c(c8)n(C)c(=O)n9C8CCC(=O)NC8=O)CC7)CC6)CC5)nc4c3F)c12 (stereo partly shown) [Compound 24]
16 | > 300 |  |  | C#Cc1c(F)ccc2cccc(-c3ncc4c(N5CCC[C@@](C)(O)C5)nc(OCC5(CN6CCN(CCN7CCN(c8ccc9c(c8)n(C)c(=O)n9C8CCC(=O)NC8=O)CC7)CC6)CC5)nc4c3F)c12 (stereo partly shown) [Compound 27]
17 | > 300 |  |  | C#Cc1c(F)ccc2cccc(-c3ncc4c(N5CCC[C@@](C)(O)C5)nc(OC[C@@]56CCCN5[C@H](COC(=O)N5CCC(CN7CCC(c8ccc9c(c8)n(C8CCC(=O)NC8=O)c(=O)n9C)CC7)CC5)CC6)nc4c3F)c12 (stereo partly shown) [Compound 136]
18 | > 300 |  |  | C#Cc1c(F)ccc2cccc(-c3ncc4c(N5CCC[C@@](C)(O)C5)nc(OCC5(CN6CCC(CN7CCN(c8ccc9c(c8)n(C)c(=O)n9C8CCC(=O)NC8=O)CC7)CC6)CC5)nc4c3F)c12 (stereo partly shown) [Compound 26]
19 | > 300 |  |  | C#Cc1c(F)ccc2cc(O)cc(-c3ncc4c(N5CCC[C@@](C)(O)C5)nc(OC[C@@]56CCCN5[C@H](COC(=O)NCCOCCOCCOc5ccc7c(c5)n(C)c(=O)n7C5CCC(=O)NC5=O)CC6)nc4c3F)c12 (stereo partly drawn) [Compound 115, ((3S,7aS)-7a-(((7-(8-ethynyl-7-fluoro-3-hydroxynaphthalen-1-yl)-8-fluoro-4-((R)-3-hydroxy-3-methylpiperidin-1-yl)pyrido[4,3-d]pyrimidin-2-yl)oxy)methyl)hexahydro-1H-pyrrolizin-3-yl)methyl (2-(2-(2-((1-(2,6-dioxopiperidin-3-yl)-3-methyl-2-oxo-2,3-dihydro-1H-benzo[d]imidazol-5-yl)oxy)ethoxy)ethoxy)ethyl) carbamate]
20 |  |  | > 100 | C#Cc1c(F)ccc2cccc(-c3ncc4c(N5CCC[C@@](C)(O)C5)nc(OCC5(CN6CCC7(CC6)CC(N6CCC(c8cccc9c8n(C)c(=O)n9C8CCC(=O)NC8=O)CC6)C7)CC5)nc4c3F)c12 (stereo partly shown) [Compound 44]
21 | > 300 |  |  | C#Cc1c(F)ccc2cc(O)cc(-c3ncc4c(N5CCC[C@@](C)(O)C5)nc(OC[C@@]56CCCN5[C@H](COC(=O)NCCOCCOc5ccc7c(c5)n(C)c(=O)n7C5CCC(=O)NC5=O)CC6)nc4c3F)c12 (stereo partly drawn) [Compound 114, ((3S,7aS)-7a-(((7-(8-Ethynyl-7-fluoro-3-hydroxynaphthalen-1-yl)-8-fluoro-4-((R)-3-hydro-xy-3-methylpiperidin-1-yl)pyrido[4,3-d]pyrimidin-2-yl)oxy)methyl)hexahydro-1H-pyrrolizin-3-yl)methyl (2-(2-((1-(2,6-dioxopiperidin-3-yl)-3-methyl-2-oxo-2,3-dihydro-1H-benzo[d]imidazol-5-yl)oxy)ethoxy)ethyl) carbamate]
22 | < 100 |  |  | C#Cc1c(F)ccc2cc(O)cc(-c3ncc4c(N5CCC[C@@](C)(O)C5)nc(OCC5(CN6CCC7(CC6)CC(N6CCC(c8ccc9c(c8)n(C)c(=O)n9C8CCC(=O)NC8=O)CC6)C7)CC5)nc4c3F)c12 (stereo partly shown) [Compound 54]
23 | > 300 |  |  | C#Cc1c(F)ccc2cccc(-c3ncc4c(N5CCC[C@@](C)(O)C5)nc(OCC5(CN6CCC(CN7CCC(c8ccc9c(c8)n(C)c(=O)n9C8CCC(=O)NC8=O)CC7)CC6)CC5)nc4c3F)c12 (stereo partly shown) [Compound 48]
24 | > 300 |  |  | C#Cc1c(F)ccc2cccc(-c3ncc4c(N5CCC[C@@](C)(O)C5)nc(OCC5(CN6CCC7(CC6)CC(N6CCC(c8ccc9c(c8)n(C)c(=O)n9C8CCC(=O)NC8=O)CC6)C7)CC5)nc4c3F)c12 (stereo partly shown) [Compound 36]
25 |  |  | > 100 | C#Cc1c(F)ccc2cccc(-c3ncc4c(N5CCC[C@@](C)(O)C5)nc(OCC5(CN6CCC7(CC6)CCN(c6ccc8c(c6)n(C)c(=O)n8C6CCC(=O)NC6=O)CC7)CC5)nc4c3F)c12 (stereo partly shown) [Compound 38]
